In PubChem BioAssay (NCI):
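All cell lines were grown in 96-well plates and treated with compound for 48 hours. The concentration for 50% growth inhibition is given as GI50. TGI is the concentration that stops growth completely.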

Key:
Assay in all cases: inhibition of tumour cell growth, NCI panel, 48 h
MDA-MB-435 = system: MDA-MB-435
PC-3 prostate = system: PC-3 prostate
HL-60(TB) leukemia = system: HL-60(TB) leukemia
SK-OV-3 ovarian = system: SK-OV-3 ovarian
DU-145 prostate = system: DU-145 prostate
SF-268 CNS = system: SF-268 CNS
BT-549 breast = system: BT-549 breast
OVCAR-8 ovarian = system: OVCAR-8 ovarian
NCI/ADR-RES ovarian = system: NCI/ADR-RES ovarian
K-562 leukemia = system: K-562 leukemia
SK-MEL-2 melanoma = system: SK-MEL-2 melanoma
SK-MEL-28 melanoma = system: SK-MEL-28 melanoma
SW-620 colon = system: SW-620 colon
UACC-257 melanoma = system: UACC-257 melanoma
SN12C renal = system: SN12C renal
M14 melanoma = system: M14 melanoma
A549 NSCLC = system: A549 NSCLC
KM12 colon = system: KM12 colon
UACC-62 melanoma = system: UACC-62 melanoma
SNB-19 CNS = system: SNB-19 CNS
LOX IMVI melanoma = system: LOX IMVI melanoma
786-0 renal = system: 786-0 renal
OVCAR-4 ovarian = system: OVCAR-4 ovarian
CAKI-1 renal = system: CAKI-1 renal
MOLT-4 leukemia = system: MOLT-4 leukemia
A498 renal = system: A498 renal
NCI-H460 lung = system: NCI-H460 lung
OVCAR-5 ovarian = system: OVCAR-5 ovarian
MALME-3M melanoma = system: MALME-3M melanoma
IGROV1 ovarian = system: IGROV1 ovarian
HOP-62 NSCLC = system: HOP-62 NSCLC
HT29 colon = system: HT29 colon
SK-MEL-5 melanoma = system: SK-MEL-5 melanoma
COLO 205 colon = system: COLO 205 colon
MDA-MB-231 breast = system: MDA-MB-231 breast
SF-539 CNS = system: SF-539 CNS
SR leukemia = system: SR leukemia
HCC-2998 colon = system: HCC-2998 colon
SNB-75 CNS = system: SNB-75 CNS
UO-31 renal = system: UO-31 renal
CCRF-CEM leukemia = system: CCRF-CEM leukemia
OVCAR-3 ovarian = system: OVCAR-3 ovarian
U251 CNS = system: U251 CNS
NCI-H226 lung = system: NCI-H226 lung
HS 578T breast = system: HS 578T breast
HOP-92 NSCLC = system: HOP-92 NSCLC
RXF 393 renal = system: RXF 393 renal
RPMI-8226 leukemia = system: RPMI-8226 leukemia
MCF7 breast = system: MCF7 breast
ACHN renal = system: ACHN renal
HCT-15 colon = system: HCT-15 colon
HCT-116 colon = system: HCT-116 colon
T-47D breast = system: T-47D breast
TK-10 renal = system: TK-10 renal
SF-295 CNS = system: SF-295 CNS

Compound: Cc1ccc(NC2=C(Cl)C(=O)c3nc(C)ccc3C2=O)c(C)c1
- GI50 (MDA-MB-435): 1.96 µM
- TGI (MDA-MB-435): 3.81 µM
- GI50 (PC-3 prostate): 1.56 µM
- TGI (PC-3 prostate): 3.66 µM
- GI50 (HL-60(TB) leukemia): 1.74 µM
- TGI (HL-60(TB) leukemia): 4.48 µM
- GI50 (SK-OV-3 ovarian): 2.75 µM
- TGI (SK-OV-3 ovarian): 10.6 µM
- GI50 (DU-145 prostate): 1.71 µM
- TGI (DU-145 prostate): 3.22 µM
- GI50 (SF-268 CNS): 1.86 µM
- TGI (SF-268 CNS): 4.16 µM
- GI50 (BT-549 breast): 1.44 µM
- TGI (BT-549 breast): 2.82 µM
- GI50 (OVCAR-8 ovarian): 2.41 µM
- TGI (OVCAR-8 ovarian): 7.11 µM
- GI50 (NCI/ADR-RES ovarian): 2.17 µM
- TGI (NCI/ADR-RES ovarian): 6.52 µM
- GI50 (K-562 leukemia): 1.62 µM
- TGI (K-562 leukemia): 5.54 µM
- GI50 (SK-MEL-2 melanoma): 1.93 µM
- TGI (SK-MEL-2 melanoma): 3.88 µM
- GI50 (SK-MEL-28 melanoma): 1.95 µM
- TGI (SK-MEL-28 melanoma): 3.84 µM
- GI50 (SW-620 colon): 2.15 µM
- TGI (SW-620 colon): 4.65 µM
- GI50 (UACC-257 melanoma): 1.5 µM
- TGI (UACC-257 melanoma): 2.92 µM
- GI50 (SN12C renal): 1.95 µM
- TGI (SN12C renal): 5.03 µM
- GI50 (M14 melanoma): 1.62 µM
- TGI (M14 melanoma): 3.08 µM
- GI50 (A549 NSCLC): 2.22 µM
- TGI (A549 NSCLC): 5.2 µM
- GI50 (KM12 colon): 1.74 µM
- TGI (KM12 colon): 3.29 µM
- GI50 (UACC-62 melanoma): 2 µM
- TGI (UACC-62 melanoma): 4.01 µM
- GI50 (SNB-19 CNS): 1.94 µM
- TGI (SNB-19 CNS): 4.34 µM
- GI50 (LOX IMVI melanoma): 1.14 µM
- TGI (LOX IMVI melanoma): 3.88 µM
- GI50 (786-0 renal): 2 µM
- TGI (786-0 renal): 4.4 µM
- GI50 (OVCAR-4 ovarian): 1.53 µM
- TGI (OVCAR-4 ovarian): 3.02 µM
- GI50 (CAKI-1 renal): 1.73 µM
- TGI (CAKI-1 renal): 3.34 µM
- GI50 (MOLT-4 leukemia): 1.6 µM
- TGI (MOLT-4 leukemia): 4.83 µM
- GI50 (A498 renal): 1.61 µM
- TGI (A498 renal): 6.59 µM
- GI50 (NCI-H460 lung): 1.99 µM
- TGI (NCI-H460 lung): 4.17 µM
- GI50 (OVCAR-5 ovarian): 2.26 µM
- TGI (OVCAR-5 ovarian): 4.33 µM
- GI50 (MALME-3M melanoma): 1.96 µM
- TGI (MALME-3M melanoma): 3.9 µM
- GI50 (IGROV1 ovarian): 1.85 µM
- TGI (IGROV1 ovarian): 3.88 µM
- GI50 (HOP-62 NSCLC): 1.71 µM
- TGI (HOP-62 NSCLC): 3.16 µM
- GI50 (HT29 colon): 2.61 µM
- TGI (HT29 colon): 7.34 µM
- GI50 (SK-MEL-5 melanoma): 1.67 µM
- TGI (SK-MEL-5 melanoma): 3.08 µM
- GI50 (COLO 205 colon): 2.06 µM
- TGI (COLO 205 colon): 4.28 µM
- GI50 (MDA-MB-231 breast): 1.89 µM
- TGI (MDA-MB-231 breast): 4.44 µM
- GI50 (SF-539 CNS): 1.7 µM
- TGI (SF-539 CNS): 3.21 µM
- GI50 (SR leukemia): 1.28 µM
- TGI (SR leukemia): 4.19 µM
- GI50 (HCC-2998 colon): 1.75 µM
- TGI (HCC-2998 colon): 3.31 µM
- GI50 (SNB-75 CNS): 1.49 µM
- TGI (SNB-75 CNS): 3.08 µM
- GI50 (UO-31 renal): 1.56 µM
- TGI (UO-31 renal): 3.15 µM
- GI50 (CCRF-CEM leukemia): 2.02 µM
- TGI (CCRF-CEM leukemia): 6 µM
- GI50 (OVCAR-3 ovarian): 1.42 µM
- TGI (OVCAR-3 ovarian): 2.84 µM
- GI50 (U251 CNS): 1.76 µM
- TGI (U251 CNS): 3.37 µM
- GI50 (NCI-H226 lung): 1.81 µM
- TGI (NCI-H226 lung): 4.63 µM
- GI50 (HS 578T breast): 2.28 µM
- TGI (HS 578T breast): 5.95 µM
- GI50 (HOP-92 NSCLC): 2.08 µM
- TGI (HOP-92 NSCLC): 4.35 µM
- GI50 (RXF 393 renal): 1.41 µM
- TGI (RXF 393 renal): 2.76 µM
- GI50 (RPMI-8226 leukemia): 1.54 µM
- TGI (RPMI-8226 leukemia): 4.34 µM
- GI50 (MCF7 breast): 1.4 µM
- TGI (MCF7 breast): 3.58 µM
- GI50 (ACHN renal): 1.91 µM
- TGI (ACHN renal): 3.72 µM
- GI50 (HCT-15 colon): 1.3 µM
- TGI (HCT-15 colon): 3.19 µM
- GI50 (HCT-116 colon): 1.52 µM
- TGI (HCT-116 colon): 3.25 µM
- GI50 (T-47D breast): 1.66 µM
- TGI (T-47D breast): 4.14 µM
- GI50 (TK-10 renal): 2.15 µM
- TGI (TK-10 renal): 3.68 µM
- GI50 (SF-295 CNS): 1.82 µM
- TGI (SF-295 CNS): 3.43 µM
